In brackets after ≈: the same amount, converted by molar mass. Entries after “also recorded” stand apart in the source; their conditions may differ. Like-named read-outs stand apart in the source and are kept apart here. Each block holds one compound with its values, some of them ahead of it.
What was measured:
[1] = tested on: HCT-116 human colon carcinoma cells; assay: Clonogenic cell colony-formation assay, stationary vs log phase cells; settings: for cytotoxicity against non-proliferating stationary cells: HCT-116, paclitaxel at concentrations as high as 162 nM; for fold more sensitive: cells in exponential growth (Day 2) vs stationary phase (Day 8) / fold less sensitive: cells in exponential growth (Day 2) vs stationary phase (Day 8): HCT-116 in vitro, figure legends
Protocol: (§1) At the end of a 16 h drug exposure, monolayer cell cultures were dissociated by exposing the cells to 0.05% trypsin for 5 min at 37° C. Cells were resuspended in complete media (containing 10% FBS), counted with a Coulter Channelyzer, diluted and plated with 5 replicates per dilution, into plastic tissue culture petri dishes. The cells were incubated in a humidified atmosphere for 10 days at 37° C. Cell colonies were stained with crystal violet and those with >50 cells per colony were scored.

[2] = tested on: MCF-7 estrogen-dependent human breast carcinoma; assay: MCF-7 xenograft, tamoxifen plus Compound 2; format: in vivo, nude mice; settings: tamoxifen 40 mpk PO Q2D×14, Compound 2 po 100 mpk qd×10, two courses
Protocol: Tamoxifen was administered PO, Q2D×14.
The majority of human breast cancers require estrogen for growth and tumor progression (estrogen-dependent). […] In order to assess the efficacy of the combined anti-cancer agents of the invention in a human breast cancer model, MCF-7 xenografts were grown in nude mice and treated as described herein.

[3] = tested on: A2780 human ovarian cancer cells; assay: Colony formation of A2780 cells, CDK inhibitor plus Compound 2; format: cell-based; settings: 1.5 μM, 4 hour treatment
[4] = tested on: HCT-116 human colon carcinoma cells
Protocol: as §1

[5] = Maximum tolerated dose / regimen in tumor-bearing mice; format: in vivo, nude mice
Text: The maximum tolerated dose (MTD) is defined as the dose level immediately above which excessive toxicity (i.e. more than one death) occurred. […] Activity is described at the OD.

[6] = tested on: HCTVM46 human colon carcinoma; assay: Multidrug-resistant HCT/VM46 xenograft (FIGS. 13, 14); settings: single agents or Compound 1 followed 24 hr later with Compound 2
Protocol: (§2) Tumor response was determined by measurement of tumors with a caliper twice a week until the tumors reached a predetermined “target” size of 0.5 or 1.0 g. Tumor weights (mg) were estimated from the formula:
(§3) Tumor response end-point was expressed in terms of tumor growth delay (T-C value), defined as the difference in time (days) required for the treated tumors (T) to reach a predetermined target size compared to those of the control group (C).
(§4) A tumor is defined as “cured” when there is no detectable disease at the time of study termination (Day >75 days post-tumor implantation); the interval between study termination and the end of drug treatment always exceeded 10 times the volume doubling time of any particular tumor type.

[7] = tested on: HCT116 human colon carcinoma; settings: Compound 2 125 mpk 24 h iv infusion; paclitaxel 24 mg/kg iv; alone or combined
Protocol: as §2, §3

[8] = tested on: Her-1 activated SAL-2 cancer cell line; format: cell-based; settings: 20 hours exposure
Protocol: FIG. 18A: Clonogenic survival of the SAL-2 cell line following exposure to paclitaxel for 20 hours at the indicated concentrations.

[9] = tested on: advance HCT116 human colon carcinoma; settings: dose 20 mg/kg/inj, IV, Q7D × 4
Protocol: Paclitaxel was administered IV at 20 mg/kg/inj, Q7D×4.
as §2, §3, §4

[10] = tested on: advanced HCT116 human colon carcinoma; settings: dose 30 mg/kg/inj; IV, Q2D × 5
Protocol: as §2, §3

[11] = tested on: HT-29 human colon carcinoma; assay: Advanced HT-29 xenograft, gemcitabine plus Compound 2; format: in vivo, nude mice
Text: The agent primarily kills cells undergoing DNA synthesis (S-phase) and also blocks the progression of cells through the G1/S-phase boundary.

[12] = IC90 Log / IC90 Stationary, HCT116
[13] = read-out: IC90 Log (converted), log phase (proliferating) HCT116 cells
[14] = read-out: IC90 Stationary, stationary phase (non-proliferating) HCT116 cells
[15] = read-out: IC90 Log (converted), log phase (proliferating) HCT116 cells, 16 h drug exposure
[16] = read-out: IC90 Stationary, stationary phase (non-proliferating, Day 8) HCT116 cells, 16 h drug exposure

IC90 Log ([1]; log phase HCT116 cells): >162 μg/ml
IC90 Stationary ([1]; stationary phase HCT116 cells): 4.6 µg/mL (≈ 35.4 µM)
Compound: O=c1[nH]cc(F)c(=O)[nH]1 [5-Fluorouracil, 5-fluorouracil]
cytotoxicity against non-proliferating stationary cells [1]: essentially ineffective
Non-proliferative cells selectivity ratio (fold) [1, 12]: <0.03 fold

Compound: CC/C(=C(\c1ccccc1)c1ccc(OCCN(C)C)cc1)c1ccccc1 [Tamoxifen]
tumor remission / cures [2]: no cures were observed
effect on tumor growth ([2]; alone or combined): markedly more active

Compound: CC(C)(C)c1cnc(CSc2cnc(NC(=O)C3CCNCC3)s2)o1 [Compound 9, N-[5-[[[5-(1,1-dimethylethyl)-2-oxazolyl]methyl]thio]-2-thiazolyl]-4-piperidinecarboxamide]
effect of single agent [3]: no effect dose

Compound: C/C(=C\c1csc(C)n1)[C@@H]1C[C@@H]2O[C@]2(C)CCC[C@H](C)[C@H](O)[C@@H](C)C(=O)C(C)(C)[C@@H](O)CC(=O)O1 [Epothilone B, epothilone B]
cytotoxicity against non-proliferating stationary cells [4]: essentially ineffective
fold more sensitive: cells in exponential growth (Day 2) vs stationary phase (Day 8) [1]: > 83 fold
Non-proliferative cells selectivity ratio (fold) [1, 12]: <0.01 fold
IC90 [1, 13]: 0.0013 µM
IC90 [1, 14]: > 0.108 µM

Compound: C/C(=C\c1csc(C)n1)[C@@H]1C[C@@H]2O[C@]2(C)CCC[C@H](C)[C@H](O)[C@@H](C)C(=O)C(C)(C)[C@@H](O)CC(=O)N1 (relative stereo) [Compound 1, [1S-[1R*,3R*(E),7R*,10S*,11R*,12R*,16S*]]-7,11-dihydroxy-8,8,10,12,16-pentamethyl-3-[1-methyl-2-(2-methyl-4-thiazolyl)ethenyl]-4-aza-17-oxabicyclo[14.1.0]heptadecane-5,9-dione]
maximum tolerated regimen ([5]; HCTVM46 study FIG. 13, single agents, q4d×3): 15 mg/kg
maximum tolerated regimen ([5]; HCTVM46 study FIG. 14, Compound 1 iv q4d×3, Compound 2 ip q4d×3, single agents): 10 mg/kg
tumor cure [6]: did not induce tumor cure
log cell kill ([6]; maximum tolerated regimens, q4d×3): 1.6 LCK

IC90 [1, 15]: 91.2 µM
IC90 [1, 16]: 1.05 µM
Compound: COCCCS(=O)(=O)N1Cc2cc(C#N)ccc2N(Cc2c[nH]cn2)C[C@H]1Cc1ccccc1 [Compound 4, (R)-4-(3-methoxypropylsulfonyl)-7-cyano-2,3,4,5-tetrahydro-1-(1H-imidazol-4-ylmethyl)-3-(phenylmethyl)-1H-1,4-benzodiazepine]
fold less sensitive: cells in exponential growth (Day 2) vs stationary phase (Day 8) [1]: ~91.2 fold
Non-proliferative cells selectivity ratio (fold) [1, 12]: 86.9 fold

IC90 [1, 15]: 84.7 µM
IC90 [1, 16]: 1.08 µM
Compound: N#Cc1ccc2c(c1)CN(S(=O)(=O)c1ccc(Br)s1)[C@H](Cc1ccccc1)CN2Cc1c[nH]cn1 [Compound 5, (R)-4-[(5-bromo-2-thienyl)sulfonyl]-7-cyano-2,3,4,5-tetrahydro-1-(1H-imidazol-4-ylmethyl)-3-(phenylmethyl)-1H-1,4-benzodiazepine]
Non-proliferative cells selectivity ratio (fold) [1, 12]: 78.4 fold

IC90 [1, 15]: 26 µM
IC90 [1, 16]: 9.6 µM
Compound: COc1ccc(S(=O)(=O)N2Cc3cc(C#N)ccc3N(Cc3c[nH]cn3)C[C@H]2Cc2ccccc2)cc1 [Compound 7, (R)-7-cyano-2,3,4,5-tetrahydro-1-(1H-imidazol-4-ylmethyl)-4-[(4-methoxyphenyl)sulfonyl]-3-(phenylmethyl)-1H-1,4-benzodiazepine]
Non-proliferative cells selectivity ratio (fold) [1, 12]: 2.7 fold

IC90 [1, 15]: 65 µM
IC90 [1, 16]: 0.36 µM
Compound: CCCCS(=O)(=O)N1Cc2cc(C#N)ccc2N(Cc2c[nH]cn2)C[C@H]1Cc1ccccc1 [Compound 3, (R)-4-(butylsulfonyl)-7-cyano-2,3,4,5-tetrahydro-1-(1H-imidazol-4-ylmethyl)-3-(phenylmethyl)-1H-1,4-benzodiazepine]
Non-proliferative cells selectivity ratio (fold) [1, 12]: 181.0 fold

Compound: CC(=O)O[C@H]1C(=O)[C@@]2(C)[C@H]([C@H](OC(=O)c3ccccc3)[C@]3(O)C[C@H](OC(=O)[C@H](O)[C@@H](NC(=O)c4ccccc4)c4ccccc4)C(C)=C1C3(C)C)[C@]1(OC(C)=O)CO[C@@H]1C[C@@H]2O [Paclitaxel, paclitaxel]
log cell kill [7]: 0.6 LCK
maximum tolerated regimen ([5]; Pat-7 study, paclitaxel iv q3d×3, Compound 2 ip q3d×3): 36 mg/kg
Non-proliferative cells selectivity ratio (fold) [1]: <0.1 fold
cytotoxicity against non-proliferating stationary cells [1]: essentially ineffective; also recorded: completely non-toxic
fold more sensitive: cells in exponential growth (Day 2) vs stationary phase (Day 8) [1]: > 10 fold
IC90 [1, 13]: 0.0178 µM
IC90 [1, 14]: > 0.162 µM
sensitivity of exponentially growing SAL2 cells to single agent [8]: relatively resistant
Tumor Response CR (%) [9]: 0%
Tumor Response LCK [9]: 2.5
Tumor Response PR (%) [9]: 20%
Tumor Response Cures (%) ([9]; Day 77): 0%

Compound: CCc1c2c(nc3ccc(OC(=O)N4CCC(N5CCCCC5)CC4)cc13)-c1cc3c(c(=O)n1C2)COC(=O)[C@]3(O)CC [CPT-11]
MTD ([5]; CPT-11 IV (Q2D × 5), HCT116 study): ~30 mg/kg/inj
Tumor Response CR (%) [10]: 0%
Tumor Response LCK [10]: 1.5
Tumor Response PR (%) [10]: 50%

IC90 [1, 15]: 66.8 µM
IC90 [1, 16]: 1.04 µM
Compound: N#Cc1ccc2c(c1)CN(S(=O)(=O)N1CCCCC1)[C@H](Cc1ccccc1)CN2Cc1c[nH]cn1 [Compound 6, (R)-7-cyano-2,3,4,5-tetrahydro-1-(1H-imidazol-4-ylmethyl)-3-(phenylmethyl)-4-(1-piperidinylsulfonyl)-1H-1,4-benzodiazepine]
fold less sensitive: cells in exponential growth (Day 2) vs stationary phase (Day 8) [1]: ~67 fold
Non-proliferative cells selectivity ratio (fold) [1, 12]: 64.2 fold

Compound: CC(O)(CS(=O)(=O)c1ccc(F)cc1)C(=O)Nc1ccc(C#N)c(C(F)(F)F)c1 (centres unmarked) [Casodex®, bicalutamide]
maximum tolerated doses and regimens ([5]; Pca-2b-AI study, Compound 2 po q1D×10, Casodex® po q1D×4): 150 mpk

Compound: Nc1ccn([C@@H]2O[C@H](CO)[C@@H](O)C2(F)F)c(=O)n1 [Gemcitabine]
MTD ([5]; gemcitabine IV, Q2D×4, HT-29 study): 36 mg/kg/inj
response rate ([11]; single agent gemcitabine 6 mg/kg/inj (so in the source)): 25%
response rate ([11]; single agent gemcitabine 24 mg/kg/inj): 0%
